Test results published in US11439641B2, “Pyrimidine JAK inhibitors for the treatment of skin diseases” (THERAVANCE BIOPHARMA R&D IP, LLC, priority 2019, dated 2022).
In brackets after ≈: the same amount, converted by molar mass.

Tests used:
Tyk2 = Tyk2 (Homo sapiens (Human), UniProt P29597); assay: Biochemical JAK and Tyk2 Kinase Assays (LanthaScreen), Tyk2; details: 10 μM ATP (Km), pIC50 converted to pKi by Cheng-Prusoff; for Ki: read-out: Tyk 2 (pKi) (converted)
Protocol: (§1) Assay 1: Biochemical JAK and Tyk2 Kinase Assays
(§2) A panel of four LanthaScreen JAK biochemical assays (JAK1, 2, 3 and Tyk2) were carried in a common kinase reaction buffer (50 mM HEPES, pH 7.5, 0.01% Brij-35, 10 mM MgCl2, and 1 mM EGTA). Recombinant GST-tagged JAK enzymes and a GFP-tagged STAT1 peptide substrate were obtained from Life Technologies.
(§3) Serially or discretely diluted compounds were pre-incubated with each of the four JAK enzymes and the substrate in white 384-well microplates (Corning) at ambient temperature for 1 h. ATP was subsequently added to initiate the kinase reactions in 10 μL total volume, with 1% DMSO. The final enzyme concentrations for JAK1, 2, 3 and Tyk2 are 4.2 nM, 0.1 nM, 1 nM, and 0.25 nM respectively; the corresponding Km ATP concentrations used are 25 μM, 3 μM, 1.6 μM, and 10 μM; while the substrate concentration is 200 nM for all four assays. Kinase reactions were allowed to proceed for 1 hour at ambient temperature before a 10 μL preparation of EDTA (10 mM final concentration) and Tb-anti-pSTAT1 (pTyr701) antibody (Life Technologies, 2 nM final concentration) in TR-FRET dilution buffer (Life Technologies) was added. The plates were allowed to incubate at ambient temperature for 1 h before being read on the EnVision reader (Perkin Elmer). Emission ratio signals (520 nm/495 nm) were recorded and utilized to calculate the percent inhibition values based on DMSO and background controls.
(§4) For dose-response analysis, percent inhibition data were plotted vs. compound concentrations, and IC50 values were determined from a 4-parameter robust fit model with the Prism software (GraphPad Software). Results were expressed as pIC50 (negative logarithm of IC50) and subsequently converted to pKi (negative logarithm of dissociation constant, Ki) using the Cheng-Prusoff equation.

[1] = tested on: IL-2 stimulated pSTAT5 in Tall-1 T cells; assay: Inhibition of IL-2 Stimulated pSTAT5 in Tall-1 T Cells; assay type: cell-based; details: Tall-1 human T cell line, IL-2 300 ng/mL, AlphaLisa; for IC50: read-out: Tall-1 IL2 pSTAT5 (pIC50) (converted)
Summary of the method: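 Cells preincubated with compound 1 hour at 37° C, then stimulated with IL-2 (final 300 ng/mL) for 30 minutes. After lysis, pSTAT5 (Tyr694/699) read by AlphaLISA luminescence. IC50 from inhibition curves, reported as pIC50 (mean±SD).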

physchem = details: thermodynamic from solid
Protocol: (§5) Assay 6: Solubility Assay in Organic Excipients
(§6) The purpose of this assay was to quantify the solubility of test compounds in different organic excipients such as diisopropyl adipate, medium chain triglycerides (MCT), propylene glycol, and polyethylene glycol. The assay required 80 μL of 100 mM DMSO test compound solution per desired excipient in addition to 40 μL required to make a test standard.
(§7) The standard was created by diluting 40 μL of 100 mM DMSO compound stock solution into 160 μL of methanol and was shaken for five minutes to ensure solution uniformity. […] This 20,000 μM solution was run on an Agilent 1260 LC-MS system by injecting 0.2 μL in order to obtain the peak area. For the test solutions, 80 μL of 100 mM DMSO compound stock solution, per excipient, were dried down into a powder overnight. Once in powder form, 400 μL of the desired excipient was added to the powder and allowed to shake vigorously for four hours. The maximum theoretical concentration for this sample solution was 20,000 μM. After four hours of shaking, the samples were centrifuged for 10 minutes at 3,000 RPM before injecting 0.2 μL on the same Agilent 1260 LC-MS system to obtain the peak area.

JAK3 = JAK3 (Homo sapiens (Human), UniProt P52333); assay: Biochemical JAK and Tyk2 Kinase Assays (LanthaScreen), JAK3; details: 1.6 μM ATP (Km), pIC50 converted to pKi by Cheng-Prusoff; for Ki: read-out: JAK 3 (pKi) (converted)
JAK2 = JAK2 (Homo sapiens (Human), UniProt O60674); assay: Biochemical JAK and Tyk2 Kinase Assays (LanthaScreen), JAK2; details: 3 μM ATP (Km); pIC50 converted to pKi by Cheng-Prusoff
Protocol: as §1, §2, §3, §4

JAK1 = JAK1 (Homo sapiens (Human), UniProt P23458); assay: Biochemical JAK and Tyk2 Kinase Assays (LanthaScreen), JAK1; details: 25 μM ATP (Km), pIC50 converted to pKi by Cheng-Prusoff
Caco-2 cell monolayer = assay: Caco-2 Permeation Assay; assay type: in vitro ADME; details: Papp, 5 μM compound; for Cacoverap Kp 10^−6 cm/sec: A→B in the presence of 25 μM verapamil (P-gp inhibitor); for Caco Kp 10^−6 cm/sec: apical to basal (A→B)
Protocol: Assay 3: Caco-2 Permeation Assay
The Caco 2 permeability assay was used as a surrogate for assessment of skin permeability. This assay measures the in vitro permeability across a monolayer of Caco-2 cells, which morphologically and functionally resemble the enterocytes of the small intestine.
CacoReady 24-well transwell plates were obtained from ADMEcell (Alameda, Calif.). The compounds were evaluated at a concentration of 5 μM from 10 mM DMSO stock solutions in duplicate (n=2). Transport in the apical to basal (A→B) direction was determined in Caco 2 cell monolayers. From these values the apparent permeability (Papp) was calculated. To inform on the potential of the compound to be a P-gp substrate, the transport of the compound across the Caco-2 cell monolayer was also determined in the presence of 25 μM of the known P-gp inhibitor verapamil (Yusa and Tsuruo et al., Cancer Research, vol. 49, no. 18, 1989, pp. 5002-06).
Caco-2 culture media consisted of standard filtered DMEM, FCS 10%, L-Glutamine 1%, and PenStrep 1%. The experiment was conducted at 37° C. and in a CO2 (5%) incubator. The basal assay plate was prepared by adding 750 pt of transport buffer to A→B wells. A CacoReady™ plate was prepared by removing the Caco-2 media from the apical wells and replacing with fresh transport media (200 pt repeated for a total of 3 washes). Blank media (200 μL) was then replaced with diluted compound. To begin the incubation, the basal plate was removed from the incubator and the apical section was added on top of it. Samples were collected from the apical and basal compartments for time zero (t0). Samples were collected again after 120 minutes (t120) from the apical and basal compartments. All samples were diluted and prepared for bioanalysis by LC-MS/MS. The permeability coefficients (Papp, mean A to B) and (Papp, mean A to B+Verapamil) in cm/sec were calculated as dQ (flux)/(dt×Area×concentration).
In this assay, a compound with a Papp value of more than about 12×10−6 cm/sec is considered to have high permeability.

[2] = Solubility Assay in Organic Excipients; details: maximum upper limit 20,000 μM; for Solubility in MCT (mg/mL): medium chain triglycerides (MCT)
Protocol: as §5, §6, §7

Aqueous Solubility Assay = details: PBS buffer pH 7.4; maximum upper limit 1,000 μM
Protocol: Assay 5: Aqueous Solubility Assay
The purpose of this assay was to quantify the solubility of test compounds in pH 4 and pH 7.4 PBS buffers. The assay required 40 μL of 10 mM DMSO test compound solution per desired buffer in addition to 20 μL required to make a test standard. For example, to test a compound in both buffers, 100 μL (2*40 μL+20 μL) of 10 mM DMSO compound stock solution was required.
The standard was created by diluting 20 μL of 10 mM DMSO compound stock solution into 180 μL of methanol and was shaken for five minutes to ensure solution uniformity. […] This 1,000 μM solution was run on an Agilent 1260 LC-MS system by injecting 2 μL in order to obtain the peak area. For the test solutions, 40 μL of 10 mM DMSO compound stock solution, per PBS buffer condition, were dried down into a powder overnight. Once in powder form, 400 μL of the desired PBS buffer was added to the powder and allowed to shake vigorously for four hours. The maximum theoretical concentration for this sample solution was 1,000 μM. After four hours of shaking, the samples were centrifuged for 10 minutes at 3,000 RPM before injecting 2 μL on the same Agilent 1260 LC-MS system to obtain the peak area.
In Table 6 below, A represents a value above 500, B represents a value between 250 and 500, C represents a value between 50 and 250, D represents a value between 10 and 50, and E represents a value below 10.

[3] = oil or lipid, Solubility in MCT (mg/mL)
[4] = organic solvent or mixture, Solubility in Diisopropyl adipate (mg/mL)
[5] = organic solvent or mixture, Solubility in PEG400 (mg/mL)
[6] = organic solvent or mixture, Solubility in Propylene glycol (mg/mL)

JAK2, sequence (O60674 whole entry): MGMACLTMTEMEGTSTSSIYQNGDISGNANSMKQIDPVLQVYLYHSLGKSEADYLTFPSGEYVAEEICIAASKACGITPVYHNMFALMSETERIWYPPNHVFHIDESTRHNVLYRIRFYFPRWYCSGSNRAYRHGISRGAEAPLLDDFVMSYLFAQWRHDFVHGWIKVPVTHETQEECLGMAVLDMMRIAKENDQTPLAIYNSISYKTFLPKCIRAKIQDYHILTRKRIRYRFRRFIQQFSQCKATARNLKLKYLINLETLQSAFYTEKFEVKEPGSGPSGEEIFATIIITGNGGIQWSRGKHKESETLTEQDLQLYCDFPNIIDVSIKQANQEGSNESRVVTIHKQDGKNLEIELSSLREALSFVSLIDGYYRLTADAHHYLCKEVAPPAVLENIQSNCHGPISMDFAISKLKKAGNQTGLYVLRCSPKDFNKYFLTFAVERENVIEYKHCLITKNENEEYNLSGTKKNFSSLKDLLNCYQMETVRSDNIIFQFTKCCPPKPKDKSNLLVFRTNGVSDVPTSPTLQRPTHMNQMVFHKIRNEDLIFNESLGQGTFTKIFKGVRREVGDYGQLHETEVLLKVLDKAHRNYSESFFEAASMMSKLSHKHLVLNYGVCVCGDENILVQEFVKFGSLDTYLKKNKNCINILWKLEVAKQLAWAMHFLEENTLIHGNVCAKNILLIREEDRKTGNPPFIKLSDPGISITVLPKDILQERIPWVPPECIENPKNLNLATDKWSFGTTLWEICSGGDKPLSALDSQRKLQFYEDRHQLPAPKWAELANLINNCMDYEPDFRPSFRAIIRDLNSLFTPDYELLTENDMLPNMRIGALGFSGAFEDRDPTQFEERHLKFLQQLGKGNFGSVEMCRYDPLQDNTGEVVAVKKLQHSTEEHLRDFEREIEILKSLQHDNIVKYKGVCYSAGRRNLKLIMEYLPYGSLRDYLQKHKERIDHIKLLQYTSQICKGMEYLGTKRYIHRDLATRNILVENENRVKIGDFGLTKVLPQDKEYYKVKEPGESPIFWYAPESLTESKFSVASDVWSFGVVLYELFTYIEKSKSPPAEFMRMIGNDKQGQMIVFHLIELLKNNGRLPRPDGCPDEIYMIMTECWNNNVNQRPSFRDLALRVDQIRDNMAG
JAK3, sequence (P52333 whole entry): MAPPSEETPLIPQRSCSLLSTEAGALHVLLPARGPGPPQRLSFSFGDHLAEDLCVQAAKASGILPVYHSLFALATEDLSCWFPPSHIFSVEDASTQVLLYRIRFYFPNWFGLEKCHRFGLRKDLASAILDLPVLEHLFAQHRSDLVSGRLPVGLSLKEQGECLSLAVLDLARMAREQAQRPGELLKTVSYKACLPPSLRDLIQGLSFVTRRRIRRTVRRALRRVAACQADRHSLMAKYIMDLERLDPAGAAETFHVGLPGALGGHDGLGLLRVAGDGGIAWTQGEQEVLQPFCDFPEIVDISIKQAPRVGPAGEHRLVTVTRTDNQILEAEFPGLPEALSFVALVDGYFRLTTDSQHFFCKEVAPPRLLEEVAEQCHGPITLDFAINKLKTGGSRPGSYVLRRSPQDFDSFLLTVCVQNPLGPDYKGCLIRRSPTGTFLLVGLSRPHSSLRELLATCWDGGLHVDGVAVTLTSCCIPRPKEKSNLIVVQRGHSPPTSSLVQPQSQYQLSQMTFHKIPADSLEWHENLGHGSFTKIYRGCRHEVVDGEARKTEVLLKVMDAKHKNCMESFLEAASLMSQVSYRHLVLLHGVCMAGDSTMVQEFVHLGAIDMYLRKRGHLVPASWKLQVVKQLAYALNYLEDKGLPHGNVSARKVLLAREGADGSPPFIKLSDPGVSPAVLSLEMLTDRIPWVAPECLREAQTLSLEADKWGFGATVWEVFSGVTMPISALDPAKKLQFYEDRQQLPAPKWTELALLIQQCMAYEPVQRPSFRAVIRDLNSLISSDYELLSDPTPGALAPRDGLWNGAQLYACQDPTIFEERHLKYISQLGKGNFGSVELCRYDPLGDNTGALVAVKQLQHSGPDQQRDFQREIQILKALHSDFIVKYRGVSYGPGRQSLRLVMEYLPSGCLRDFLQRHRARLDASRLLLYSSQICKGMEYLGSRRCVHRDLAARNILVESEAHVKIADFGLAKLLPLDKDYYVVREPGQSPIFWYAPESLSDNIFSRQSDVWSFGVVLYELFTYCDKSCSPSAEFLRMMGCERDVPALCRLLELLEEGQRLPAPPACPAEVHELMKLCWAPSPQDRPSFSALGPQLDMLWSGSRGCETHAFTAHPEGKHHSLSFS
Tyk2, sequence (P29597 whole entry): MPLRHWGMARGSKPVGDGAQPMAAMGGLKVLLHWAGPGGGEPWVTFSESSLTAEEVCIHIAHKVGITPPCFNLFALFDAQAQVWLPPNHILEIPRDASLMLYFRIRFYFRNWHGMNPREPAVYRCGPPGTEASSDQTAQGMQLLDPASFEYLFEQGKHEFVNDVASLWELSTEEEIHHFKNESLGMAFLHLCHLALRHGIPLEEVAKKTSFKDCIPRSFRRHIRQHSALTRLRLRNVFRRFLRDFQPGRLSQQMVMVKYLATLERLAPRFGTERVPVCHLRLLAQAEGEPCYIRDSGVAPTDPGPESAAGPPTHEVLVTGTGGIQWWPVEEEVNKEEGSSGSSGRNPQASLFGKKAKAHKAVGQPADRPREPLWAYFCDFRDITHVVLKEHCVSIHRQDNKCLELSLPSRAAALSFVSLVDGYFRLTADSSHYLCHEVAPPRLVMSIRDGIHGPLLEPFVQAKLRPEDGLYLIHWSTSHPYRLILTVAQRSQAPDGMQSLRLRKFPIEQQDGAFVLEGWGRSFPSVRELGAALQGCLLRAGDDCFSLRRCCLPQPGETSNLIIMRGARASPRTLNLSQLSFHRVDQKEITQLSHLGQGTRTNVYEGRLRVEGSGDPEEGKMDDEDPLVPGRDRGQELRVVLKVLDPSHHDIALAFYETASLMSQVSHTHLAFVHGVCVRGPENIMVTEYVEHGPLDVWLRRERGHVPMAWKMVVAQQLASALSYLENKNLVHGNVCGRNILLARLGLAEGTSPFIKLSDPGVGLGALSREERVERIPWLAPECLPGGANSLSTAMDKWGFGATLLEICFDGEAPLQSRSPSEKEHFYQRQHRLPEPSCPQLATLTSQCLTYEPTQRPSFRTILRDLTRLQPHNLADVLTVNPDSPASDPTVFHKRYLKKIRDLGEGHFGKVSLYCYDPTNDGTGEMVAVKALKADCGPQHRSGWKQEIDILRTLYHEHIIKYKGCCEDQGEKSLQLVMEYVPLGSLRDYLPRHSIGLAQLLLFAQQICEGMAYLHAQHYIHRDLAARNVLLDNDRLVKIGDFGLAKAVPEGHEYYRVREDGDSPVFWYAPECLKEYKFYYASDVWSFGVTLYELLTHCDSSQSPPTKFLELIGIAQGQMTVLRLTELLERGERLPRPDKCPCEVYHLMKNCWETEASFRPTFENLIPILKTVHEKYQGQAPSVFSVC
JAK1, sequence (P23458 whole entry): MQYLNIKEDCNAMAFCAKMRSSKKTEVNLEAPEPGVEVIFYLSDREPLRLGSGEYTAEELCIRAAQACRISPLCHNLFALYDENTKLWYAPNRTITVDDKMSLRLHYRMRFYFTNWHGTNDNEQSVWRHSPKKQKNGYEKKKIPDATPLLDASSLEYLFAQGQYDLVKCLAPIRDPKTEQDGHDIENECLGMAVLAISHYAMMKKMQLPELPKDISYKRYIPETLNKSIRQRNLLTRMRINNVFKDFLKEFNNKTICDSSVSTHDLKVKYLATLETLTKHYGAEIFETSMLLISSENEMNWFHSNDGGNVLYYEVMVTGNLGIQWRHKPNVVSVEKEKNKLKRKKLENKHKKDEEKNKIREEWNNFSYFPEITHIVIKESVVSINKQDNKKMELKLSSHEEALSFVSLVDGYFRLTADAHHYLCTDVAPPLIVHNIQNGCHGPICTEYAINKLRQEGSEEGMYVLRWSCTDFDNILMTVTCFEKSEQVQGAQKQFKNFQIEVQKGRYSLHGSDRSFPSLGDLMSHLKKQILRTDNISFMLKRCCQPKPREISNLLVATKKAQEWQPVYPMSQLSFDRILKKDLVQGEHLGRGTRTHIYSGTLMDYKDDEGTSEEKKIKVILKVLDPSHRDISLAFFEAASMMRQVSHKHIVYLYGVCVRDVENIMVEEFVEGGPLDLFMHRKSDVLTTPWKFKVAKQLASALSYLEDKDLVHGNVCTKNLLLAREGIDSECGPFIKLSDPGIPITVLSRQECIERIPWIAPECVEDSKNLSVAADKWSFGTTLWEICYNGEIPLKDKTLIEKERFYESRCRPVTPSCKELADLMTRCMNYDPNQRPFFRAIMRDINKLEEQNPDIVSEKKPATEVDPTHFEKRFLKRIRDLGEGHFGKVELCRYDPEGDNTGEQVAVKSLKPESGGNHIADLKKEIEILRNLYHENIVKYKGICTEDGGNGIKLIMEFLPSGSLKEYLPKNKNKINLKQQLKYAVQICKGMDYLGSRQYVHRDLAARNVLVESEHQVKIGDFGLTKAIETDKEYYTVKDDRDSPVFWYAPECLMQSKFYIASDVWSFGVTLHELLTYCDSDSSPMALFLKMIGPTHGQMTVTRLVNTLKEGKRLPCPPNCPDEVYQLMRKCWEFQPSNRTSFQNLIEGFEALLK

SMILES	Ki (Tyk2) [nM]	IC50 [1] [nM]	solubility at 4 h (physchem; [3]) [µg/mL]	solubility at 4 h (physchem; [4]) [µg/mL]	solubility at 4 h (physchem; [5]) [µg/mL]	solubility at 4 h (physchem; [6]) [µg/mL]	Ki (JAK3) [nM]	JAK 2 (pKi) (JAK2)	Ki (JAK1; read-out: JAK 1 (pKi) (converted)) [nM]	Cacoverap Kp 10^−6 cm/sec (Caco-2 cell monolayer)	Caco Kp 10^−6 cm/sec (Caco-2 cell monolayer)	Solubility in PEG400 (mg/mL) [2]	Solubility in Diisopropyl adipate (mg/mL) [2]	Solubility in MCT (mg/mL) [2]	Solubility in Propylene glycol (mg/mL) [2]	JAK 3 (pKi) (JAK3)	Solubility at PH 7.4 (μmol) (Aqueous Solubility Assay)	JAK 1 (pKi) (JAK1)	Tall-1 IL2 pSTAT5 (pIC50) [1]	Tyk 2 (pKi) (Tyk2)
COCCC(=O)N1[C@@H]2CCC[C@H]1C[C@H](N(C)c1nc(Nc3cc(C)[nH]n3)cc(O[C@@H]3CCOC3)n1)C2 [Compound 25]	0.1 to 1	≤ 10	< 5000	> 10000	> 10000	> 10000	0.1 to 1	A (A represents a pKi value ≥10 (Ki≤0.1 nM))	0.1 to 1	–	–	–	–	–	–	–	–	–	–	–
CCS(=O)(=O)N1[C@@H]2CCC[C@H]1C[C@H](N(C)c1nc(Nc3cc(C)[nH]n3)cc(OCC3COC3)n1)C2 [Compound 39, N^2-((1R,3s,5S)-9-(ethylsulfonyl)-9-azabicyclo[3.3.1]nonan-3-yl)-N2-methyl-N4-(5-methyl-1H-pyrazol-3-yl)-6-(oxetan-3-ylmethoxy)pyrimidine-2,4-diamine]	–	–	–	–	–	–	–	–	–	B (B represents a value between 20×10^−6 and 35×10^−6 cm/sec)	B (B represents a value between 15×10^−6 and 30×10^−6 cm/sec)	A (A represents a value above 10)	B (B represents a value between 5 and 10)	C (C represents a value below 5)	B (B represents a value between 5 and 10)	A (A represents a pKi value ≥10 (Ki≤0.1 nM))	E (E represents a value below 10)	A (A represents a pKi value ≥10 (Ki≤0.1 nM))	–	–
CCNC(=O)CN1[C@@H]2CCC[C@H]1C[C@H](N(C)c1nc(Nc3cc(C)[nH]n3)cc(C3CCCO3)n1)C2 (stereo partly drawn) [Compound 15, N-ethyl-2-((1R,3s,5S)-3-(methyl(4-((5-methyl-1H-pyrazol-3-yl)amino)-6-(tetrahydrofuran-2-yl)pyrimidin-2-yl)amino)-9-azabicyclo[3.3.1]nonan-9-yl)acetamide]	–	–	–	–	–	–	–	–	–	B (B represents a value between 20×10^−6 and 35×10^−6 cm/sec)	B (B represents a value between 15×10^−6 and 30×10^−6 cm/sec)	B (B represents a value between 5 and 10)	A (A represents a value above 10)	C (C represents a value below 5)	A (A represents a value above 10)	B (B represents a pKi value between 9 and 10 (Ki between 1 nM and 0.1 nM))	A (A represents a value above 500)	A (A represents a pKi value ≥10 (Ki≤0.1 nM))	A (A represents a pIC50 value ≥8.0)	–
CCNC(=O)CN1[C@@H]2CCC[C@H]1C[C@H](N(C)c1nc(Nc3cc(C)[nH]n3)cc(O[C@H]3CCOC3)n1)C2 [Compound 32]	0.1 to 1	–	< 5000	> 10000	> 10000	> 10000	0.1 to 1	A (A represents a pKi value ≥10 (Ki≤0.1 nM))	–	–	–	–	–	–	–	–	–	A (A represents a pKi value ≥10 (Ki≤0.1 nM))	–	–
Cc1cc(Nc2cc(OC3COC3)nc(N(C)[C@@H]3C[C@H]4CCC[C@@H](C3)N4C(=O)CC3CC3)n2)n[nH]1 [Compound 35]	–	≤ 10	< 5000	5000 to 10000 (≈ 10.4 to 20.8 mM)	5000 to 10000 (≈ 10.4 to 20.8 mM)	5000 to 10000 (≈ 10.4 to 20.8 mM)	0.1 to 1	A (A represents a pKi value ≥10 (Ki≤0.1 nM))	–	–	–	–	–	–	–	–	–	A (A represents a pKi value ≥10 (Ki≤0.1 nM))	–	A (A represents a pKi value ≥10 (Ki≤0.1 nM))
Cc1cc(Nc2cc(C3CCCO3)nc(N(C)[C@@H]3C[C@H]4CCC[C@@H](C3)N4C(=O)CC3CC3)n2)n[nH]1 (stereo partly drawn) [Compound 12, 2-cyclopropyl-1-((1R,3s,5S)-3-(methyl(4-((5-methyl-1H-pyrazol-3-yl)amino)-6-(tetrahydrofuran-2-yl)pyrimidin-2-yl)amino)-9-azabicyclo[3.3.1]nonan-9-yl)ethan-1-one]	–	–	–	–	–	–	–	–	–	C (C represents a value between 12×10^−6 and 20×10^−6 cm/sec)	B (B represents a value between 15×10^−6 and 30×10^−6 cm/sec)	B (B represents a value between 5 and 10)	B (B represents a value between 5 and 10)	C (C represents a value below 5)	B (B represents a value between 5 and 10)	C (C represents a pKi value between 8 and 9 (Ki between 10 nM and 1 nM))	C (C represents a value between 50 and 250)	B (B represents a pKi value between 9 and 10 (Ki between 1 nM and 0.1 nM))	A (A represents a pIC50 value ≥8.0)	–
CCS(=O)(=O)N1[C@@H]2CCC[C@H]1C[C@H](N(C)c1nc(Nc3cc(C)[nH]n3)c(F)c(C3CCOCC3)n1)C2 [Compound 45, N2-((1R,3s,5S)-9-(ethylsulfonyl)-9-azabicyclo[3.3.1]nonan-3-yl)-5-fluoro-N2-methyl-N4-(5-methyl-1H-pyrazol-3-yl)-6-(tetrahydro-2H-pyran-4-yl)pyrimidine-2,4-diamine]	–	–	–	–	–	–	–	–	–	B (B represents a value between 20×10^−6 and 35×10^−6 cm/sec)	B (B represents a value between 15×10^−6 and 30×10^−6 cm/sec)	A (A represents a value above 10)	A (A represents a value above 10)	C (C represents a value below 5)	A (A represents a value above 10)	C (C represents a pKi value between 8 and 9 (Ki between 10 nM and 1 nM))	E (E represents a value below 10)	B (B represents a pKi value between 9 and 10 (Ki between 1 nM and 0.1 nM))	A (A represents a pIC50 value ≥8.0)	–
